Experimental data published in US20100267561A1, “HERBICIDAL PYRIDAZINONE DERIVATIVES” (priority 2007, published 2010).
Where two headings read alike, the source gives them in different places.

Tests used:
Format in all cases: in vivo
[1] = tested on: giant foxtail (Setaria faberi); assay: Test A pre-/postemergence plant response; conditions: for pest or weed control at 1000 g/ha: Setaria faberi, 240 h, 1000 g ai/ha, read-out: Plant response rating, Foxtail, Giant
Method in brief: (§1)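 Soil: loam blended with sand. Formulation: non-phytotoxic solvent mixture plus surfactant, applied as preemergence directed soil spray and as postemergence spray. Scoring: visual, 0 no effect to 100 complete control, roughly 10 days post-treatment in greenhouse.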

[2] = tested on: large crabgrass (Digitaria sanguinalis); assay: Test A pre-/postemergence plant response; conditions: for pest or weed control at 1000 g/ha: Digitaria sanguinalis, 240 h, 1000 g ai/ha, read-out: Plant response rating, Crabgrass, Large
Method in brief: as §1

[3] = tested on: pigweed (Amaranthus retroflexus); assay: Test A pre-/postemergence plant response; conditions: for pest or weed control at 1000 g/ha: Amaranthus retroflexus, 240 h, 1000 g ai/ha, read-out: Plant response rating, Pigweed
Method in brief: as §1

[4] = tested on: morningglory (Ipomoea coccinea); assay: Test A pre-/postemergence plant response
Method in brief: as §1

[5] = tested on: wheat (Triticum aestivum); assay: Test A pre-/postemergence plant response; conditions: for plant injury at 1000 g/ha: Triticum aestivum, 240 h, 1000 g ai/ha, read-out: Plant response rating, Wheat
Method in brief: as §1

[6] = tested on: barnyardgrass (Echinochloa crus-galli); assay: Test A pre-/postemergence plant response; conditions: for pest or weed control at 1000 g/ha: Echinochloa crus-galli, 240 h, 1000 g ai/ha, read-out: Plant response rating, Barnyardgrass
Method in brief: as §1

[7] = tested on: velvetleaf (Abutilon theophrasti); assay: Test A pre-/postemergence plant response
Method in brief: as §1

corn (Zea mays) = assay: Test A pre-/postemergence plant response; conditions: for Corn plant response rating (crop injury, 0 = no effect, 100 = complete kill) at 1000 g/ha: Zea mays, 240 h, 1000 g ai/ha
Method in brief: as §1

[8] = tested on: green foxtail (Setaria viridis); assay: Test B pre-/postemergence plant response; conditions: for pest or weed control at 31 g/ha / pest or weed control at 62 g/ha / pest or weed control at 125 g/ha / pest or weed control at 250 g/ha: Setaria viridis, read-out: Plant response rating, Foxtail, Green
Method in brief: (§2)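 Visual scoring from 0 (no effect) to 100 (complete control) against untreated controls was done 13 to 15 days after greenhouse treatment. Chemicals were formulated in a surfactant-containing non-phytotoxic solvent and applied to soil preemergence or to 1- to 4-leaf (2-18 cm) plants postemergence.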

[9] = tested on: wheat (Triticum aestivum); assay: Test B pre-/postemergence plant response; conditions: for plant injury at 31 g/ha / plant injury at 62 g/ha / plant injury at 125 g/ha / plant injury at 250 g/ha: Triticum aestivum, read-out: Plant response rating, Wheat
Method in brief: as §2

[10] = tested on: johnsongrass (Sorghum halepense); assay: Test B pre-/postemergence plant response; conditions: for pest or weed control at 31 g/ha / pest or weed control at 62 g/ha / pest or weed control at 125 g/ha / pest or weed control at 250 g/ha: Sorghum halepense, read-out: Plant response rating, Johnsongrass
Method in brief: as §2

[11] = Postemergence, 125 g ai/ha, 0 to 100 scale, 0 no effect, 100 complete control
[12] = Postemergence, 500 g ai/ha, 0 to 100 scale, 0 no effect, 100 complete control
[13] = Preemergence, 125 g ai/ha, 0 to 100 scale (0 no effect, 100 complete control)
[14] = Preemergence, 500 g ai/ha, 0 to 100 scale (0 no effect, 100 complete control)
[15] = Postemergence, 31 g ai/ha, scale 0 to 100, 0 no effect, 100 complete control
[16] = Postemergence, 62 g ai/ha, scale 0 to 100
[17] = Postemergence, 125 g ai/ha, scale 0 to 100
[18] = Postemergence, 250 g ai/ha, scale 0 to 100
[19] = Preemergence, 31 g ai/ha, 0 to 100 scale, 0 no effect, 100 complete control
[20] = Preemergence, 62 g ai/ha, scale 0 to 100
[21] = Preemergence, 125 g ai/ha, scale 0 to 100
[22] = Preemergence, 250 g ai/ha, scale 0 to 100
[23] = post-emergence, Postemergence, 0 to 100 scale, 0 no effect, 100 complete control
[24] = pre-emergence, Preemergence, 0 to 100 scale (0 no effect, 100 complete control)
[25] = Postemergence, 1000 g ai/ha, 0 to 100 scale, 0 no effect, 100 complete control
[26] = Preemergence, 1000 g ai/ha, 0 to 100 scale (0 no effect, 100 complete control)
[27] = post-emergence, Postemergence, 31 g ai/ha, scale 0 to 100, 0 no effect, 100 complete control
[28] = post-emergence, Postemergence, 62 g ai/ha, scale 0 to 100
[29] = post-emergence, Postemergence, 125 g ai/ha, scale 0 to 100
[30] = post-emergence, Postemergence, 250 g ai/ha, scale 0 to 100
[31] = pre-emergence, Preemergence, 31 g ai/ha, 0 to 100 scale, 0 no effect, 100 complete control
[32] = pre-emergence, Preemergence, 62 g ai/ha, scale 0 to 100
[33] = pre-emergence, Preemergence, 125 g ai/ha, scale 0 to 100
[34] = pre-emergence, Preemergence, 250 g ai/ha, scale 0 to 100

## Cc1cc(-c2ccc(Br)cc2)nn1-c1c(OC(=O)OC(C)C)cnn(C)c1=O [Compound 6]
[1]; [11]
  Plant response rating, Foxtail, Giant: 90
[1]; [12]
  Plant response rating, Foxtail, Giant: 90
[1]; [13]
  Plant response rating, Foxtail, Giant: 100
[1]; [14]
  Plant response rating, Foxtail, Giant: 100
[2]; [11]
  Plant response rating, Crabgrass, Large: 90
[2]; [12]
  Plant response rating, Crabgrass, Large: 90
[2]; [13]
  Plant response rating, Crabgrass, Large: 100
[2]; [14]
  Plant response rating, Crabgrass, Large: 100
[3]; [11]
  Plant response rating, Pigweed: 0
[3]; [12]
  Plant response rating, Pigweed: 30
[3]; [13]
  Plant response rating, Pigweed: 20
[3]; [14]
  Plant response rating, Pigweed: 40
[4]; [11]
  Plant response rating, Morningglory: 30
[4]; [12]
  Plant response rating, Morningglory: 50
[4]; [13]
  Plant response rating, Morningglory: 30
[4]; [14]
  Plant response rating, Morningglory: 40
[5]; [11]
  Plant response rating, Wheat: 50
[5]; [12]
  Plant response rating, Wheat: 70
[5]; [13]
  Plant response rating, Wheat: 80
[5]; [14]
  Plant response rating, Wheat: 90
[6]; [11]
  Plant response rating, Barnyardgrass: 90
[6]; [12]
  Plant response rating, Barnyardgrass: 100
[6]; [13]
  Plant response rating, Barnyardgrass: 90
[6]; [14]
  Plant response rating, Barnyardgrass: 100
[7]; [11]
  Plant response rating, Velvetleaf: 40
[7]; [12]
  Plant response rating, Velvetleaf: 50
[7]; [13]
  Plant response rating, Velvetleaf: 40
[7]; [14]
  Plant response rating, Velvetleaf: 50
Corn (Zea mays); [11]
  Plant response rating, Corn: 100
Corn (Zea mays); [12]
  Plant response rating, Corn: 100
Corn (Zea mays); [13]
  Plant response rating, Corn: 80
Corn (Zea mays); [14]
  Plant response rating, Corn: 90
[8]; [15]
  Plant response rating, Foxtail, Green: 100
[8]; [16]
  Plant response rating, Foxtail, Green: 100
[8]; [17]
  Plant response rating, Foxtail, Green: 100
[8]; [18]
  Plant response rating, Foxtail, Green: 100
[8]; [19]
  Plant response rating, Foxtail, Green: 100
[8]; [20]
  Plant response rating, Foxtail, Green: 100
[8]; [21]
  Plant response rating, Foxtail, Green: 100
[8]; [22]
  Plant response rating, Foxtail, Green: 100
[9]; [15]
  Plant response rating, Wheat: 90
[9]; [16]
  Plant response rating, Wheat: 100
[9]; [17]
  Plant response rating, Wheat: 100
[9]; [18]
  Plant response rating, Wheat: 100
[9]; [19]
  Plant response rating, Wheat: 35
[9]; [20]
  Plant response rating, Wheat: 80
[9]; [21]
  Plant response rating, Wheat: 90
[9]; [22]
  Plant response rating, Wheat: 90
[10]; [15]
  Plant response rating, Johnsongrass: 0
[10]; [16]
  Plant response rating, Johnsongrass: 0
[10]; [19]
  Plant response rating, Johnsongrass: 60
[10]; [20]
  Plant response rating, Johnsongrass: 90
[10]; [21]
  Plant response rating, Johnsongrass: 95
[10]; [22]
  Plant response rating, Johnsongrass: 100

## Cc1cc(-c2ccc(C(F)(F)F)cc2)nn1-c1c(O)cnn(C)c1=O [Compound 1, 5-hydroxy-2-methyl-4-[5-methyl-3-[4-(trifluoromethyl)phenyl]-1H-pyrazol-1-yl]-3(2H)-pyridazinone]
[1]; [23]
  pest or weed control at 1000 g/ha: 100%
[1]; [24]
  pest or weed control at 1000 g/ha: 100%
[2]; [23]
  pest or weed control at 1000 g/ha: 100%
[2]; [24]
  pest or weed control at 1000 g/ha: 90%
[3]; [23]
  pest or weed control at 1000 g/ha: 30%
[3]; [24]
  pest or weed control at 1000 g/ha: 20%
[4]; [25]
  Plant response rating, Morningglory: 60
[4]; [26]
  Plant response rating, Morningglory: 0
[5]; [23]
  plant injury at 1000 g/ha: 100%
[5]; [24]
  plant injury at 1000 g/ha: 90%
[6]; [23]
  pest or weed control at 1000 g/ha: 100%
[6]; [24]
  pest or weed control at 1000 g/ha: 100%
[7]; [25]
  Plant response rating, Velvetleaf: 60
[7]; [26]
  Plant response rating, Velvetleaf: 0
Corn (Zea mays); [23]
  Corn plant response rating (crop injury, 0 = no effect, 100 = complete kill) at 1000 g/ha: 100%
Corn (Zea mays); [24]
  Corn plant response rating (crop injury, 0 = no effect, 100 = complete kill) at 1000 g/ha: 100%
[8]; [27]
  pest or weed control at 31 g/ha: 95%
[8]; [28]
  pest or weed control at 62 g/ha: 100%
[8]; [29]
  pest or weed control at 125 g/ha: 100%
[8]; [30]
  pest or weed control at 250 g/ha: 100%
[8]; [31]
  pest or weed control at 31 g/ha: 100%
[8]; [32]
  pest or weed control at 62 g/ha: 100%
[8]; [33]
  pest or weed control at 125 g/ha: 100%
[8]; [34]
  pest or weed control at 250 g/ha: 100%
[9]; [27]
  plant injury at 31 g/ha: 45%
[9]; [28]
  plant injury at 62 g/ha: 90%
[9]; [29]
  plant injury at 125 g/ha: 90%
[9]; [30]
  plant injury at 250 g/ha: 95%
[9]; [31]
  plant injury at 31 g/ha: 35%
[9]; [32]
  plant injury at 62 g/ha: 45%
[9]; [33]
  plant injury at 125 g/ha: 90%
[9]; [34]
  plant injury at 250 g/ha: 95%
[10]; [27]
  pest or weed control at 31 g/ha: 60%
[10]; [28]
  pest or weed control at 62 g/ha: 90%
[10]; [29]
  pest or weed control at 125 g/ha: 100%
[10]; [30]
  pest or weed control at 250 g/ha: 100%
[10]; [31]
  pest or weed control at 31 g/ha: 90%
[10]; [32]
  pest or weed control at 62 g/ha: 95%
[10]; [33]
  pest or weed control at 125 g/ha: 100%
[10]; [34]
  pest or weed control at 250 g/ha: 100%
